Experimental data taken from patent US20230183818A1, “ANTIBIOTIC SUSCEPTIBILITY OF MICROORGANISMS AND RELATED MARKERS, COMPOSITIONS, METHODS AND SYSTEMS” (priority 2018, published 2023).
Converted amounts (≈) assume the structure as drawn.

Assays:
[1] = tested on: Neisseria gonorrhoeae; details: cited from earlier work
[2] = tested on: Neisseria gonorrhoeae
Procedure: Cultures were diluted (5X) into HFB. Each isolate culture was split into “treated” and “control” tubes.
During incubation, samples were collected for RNA sequencing at 5, 10, and 15 min (300 µL aliquot of sample was mixed into 600 µL of Qiagen RNA Protect Reagent (Qiagen, Hilden, Germany) for immediate RNA stabilization).
RNA was extracted using the Enzymatic Lysis of Bacteria protocol of the Qiagen RNeasy Mini Kit and processed according to the manufacturer’s protocol. DNA digestion was performed during extraction using the Qiagen RNase-Free DNase Set.
The quality of extracted RNA was measured using an Agilent 2200 TapeStation (Agilent, Santa Clara, CA, USA). Extracted RNA samples were prepared for sequencing using the NEBNext Ultra RNA Library Prep Kit for Illumina (New England Biolabs, Ipswitch, MA, USA) and the NEBNExt Multiplex Oligos for Illumina. […] Raw reads from the sequenced libraries were subjected to quality control to filter out low-quality reads and trim the adaptor sequences using Trimmomatic (version 0.35).
The reads were aligned to the FA 1090 strain of N. gonorrhoeae (NCBI Reference Sequence: NC_002946.2) using Bowtie2 (version 2.2.5) and quantified using the Subread package (version 1.5.0-p1). A pseudocount of 1 was added to the gene quantification; gene expression was defined in transcripts per million (TPM). […]

Compound	MIC Breakpoint, I (intermediate) [1] [µg/mL]	MIC Breakpoint, R (resistant) [1] [µg/mL]	MIC Breakpoint, S (susceptible) [1] [µg/mL]	transcriptional response in resistant isolates ([2]; resistant isolates, all time points (0-15 min))	expression response of the six candidate markers (porB, rpmB, tig, yebC, pilB, cysK) ([2]; susceptible isolates, 15 min exposure)	resistant MIC breakpoint ([1]; Neisseria gonorrhoeae) [microgram/mL]	susceptible MIC breakpoint ([1]; Neisseria gonorrhoeae) [microgram/mL]
CN1CCN(c2c(F)cc3c(=O)c(C(=O)O)cn(CCF)c3c2F)CC1 [Fleroxacin]	0.5 (≈ 1.35 µM)	≥1	≤ 0.25	–	–	–	–
CC(C)(O/N=C(\C(=O)N[C@@H]1C(=O)N2C(C(=O)[O-])=C(C[n+]3ccccc3)CS[C@H]12)c1csc(N)n1)C(=O)O [Ceftazidime]	–	–	≤ 0.5	–	–	–	–
CO/N=C(\C(=O)N[C@@H]1C(=O)N2C(C(=O)O)=CCS[C@H]12)c1csc(N)n1 [Ceftizoxime]	–	–	≤ 0.5	–	–	–	–
CO/N=C(\C(=O)N[C@@H]1C(=O)N2C(C(=O)[O-])=C(C[N+]3(C)CCCC3)CS[C@H]12)c1csc(N)n1 [Cefepime]	–	–	≤ 0.5	–	–	–	–
CO[C@@]1(NC(=O)CSCC#N)C(=O)N2C(C(=O)O)=C(CSc3nnnn3C)CS[C@@H]21 [Cefmetazole]	4 (≈ 8.48 µM)	≥8	≤2	–	–	–	–
CO/N=C(\C(=O)N[C@@H]1C(=O)N2C(C(=O)O)=C(COC(N)=O)CS[C@H]12)c1ccco1 [Cefuroxime]	2 (≈ 4.71 µM)	≥4	≤1	–	–	–	–
CO/N=C(\C(=O)N[C@@H]1C(=O)N2C(C(=O)O)=C(CSc3nc(=O)c(=O)[nH]n3C)CS[C@H]12)c1csc(N)n1 [Ceftriaxone]	–	–	≤ 0.25	–	–	–	–
CO/N=C(\C(=O)N[C@@H]1C(=O)N2C(C(=O)O)=C(C)CS[C@H]12)c1csc(N)n1 [Cefetamet]	–	–	≤ 0.5	–	–	–	–
O=C(O)c1cn(C2CC2)c2cc(N3CCNCC3)c(F)cc2c1=O [Ciprofloxacin, ciprofloxacin]	0.12 to 0.5	≥1	≤ 0.06	did not significantly respond	downregulation	1.00	0.06
CO/N=C(\C(=O)N[C@@H]1C(=O)N2C(C(=O)O)=C(COC(C)=O)CS[C@H]12)c1csc(N)n1 [Cefotaxime]	–	–	≤ 0.5	–	–	–	–
CCn1cc(C(=O)O)c(=O)c2cc(F)c(N3CCNC(C)C3)c(F)c21 (stereo not shown) [Lomefloxacin]	0.25 to 1	≥2	≤ 0.12	–	–	–	–
CN[C@@H]1[C@H](O)[C@H](NC)[C@H]2O[C@@]3(O)C(=O)C[C@@H](C)O[C@H]3O[C@@H]2[C@H]1O [Spectinomycin]	64 (≈ 193 µM)	≥ 128	≤ 32	–	–	–	–
CO[C@@]1(NC(=O)Cc2cccs2)C(=O)N2C(C(=O)O)=C(COC(N)=O)CS[C@@H]21 [Cefoxitin]	4 (≈ 9.36 µM)	≥8	≤2	–	–	–	–
CCn1cc(C(=O)O)c(=O)c2cc(F)c(N3CCNCC3)nc21 [Enoxacin]	1 (≈ 3.12 µM)	≥2	≤ 0.5	–	–	–	–
Penicillin	0.12 to 1	≥2	≤ 0.06	–	–	–	–
